Our source for the melting point values is patent US12077503B2, “Substituted cyclic amides and their use as herbicides” (FMC CORPORATION, priority 2015, dated 2024).

The structures appear in SMILES notation.

As to `CC(C)=CC1CNC(=O)C1C(=O)Nc1ccccc1F` (centres unmarked) [Compound 1011], the melting point (as a rule, the temperature of the solid-liquid transition) lay in the range of 136 to 140 °C.

For `C=C(C)c1cccc([C@H]2CN(C)C(=O)[C@@H]2C(=O)Nc2ccc(F)c(F)c2F)c1` [Compound 1087], the melting point was in the range of 98 to 102 °C.
